Results on one compound are retold here after publication PMC12469503, “Exploring the Antimicrobial and Antiviral Properties of Cryptic Peptides from Human Fibrinogen” (International Journal of Molecular Sciences, 2025).

Experiment [1] deals with Staphylococcus aureus ATCC 6538P. The following applies: Table 1; control antibiotic, twofold dilutions from 64 µg/mL.
Experiment [2] has the same test system. Briefly: microbe, parasite or virus in culture. The following applies: ATCC6538P.
For experiment [3] the test system is unchanged. The experiment in a line: microbe, parasite or virus in culture. The settings on record: ATCC6538P. This is another data set of the same source.
The test system is the same in experiment [4]. The settings on record: Table 2; Staphylococcus aureus ATCC 6538P.
The test system of experiment [5] is Enterococcus faecalis ATCC 29212. The settings on record: Table 1; control antibiotic, twofold dilutions from 64 µg/mL.

Each structure is given as a SMILES string. ≈ marks a conversion by molar mass, not a printed value.

For `CN[C@H](CC(C)C)C(=O)N[C@H]1C(=O)N[C@@H](CC(N)=O)C(=O)N[C@H]2C(=O)N[C@H]3C(=O)N[C@H](C(=O)N[C@H](C(=O)O)c4cc(O)cc(O)c4-c4cc3ccc4O)[C@H](O)c3ccc(c(Cl)c3)Oc3cc2cc(c3O[C@@H]2O[C@H](CO)[C@@H](O)[C@H](O)[C@H]2O[C@H]2C[C@](C)(N)[C@H](O)[C@H](C)O2)Oc2ccc(cc2Cl)[C@H]1O` [Vancomycin, reference compound], the “MIC S. aur. (antibiotics)” value in experiment [1] was determined as 0.5 µg/mL (≈ 0.345 µM). Further, in experiment [2], the MBC came out at 0.5 µg/mL (≈ 0.345 µM). In addition, in experiment [3], the MIC is 0.5 µg/mL (≈ 0.345 µM). The compound also had an MBC/MIC in experiment [4] of 1. Also, in experiment [5], the “MIC E. fae. (antibiotics)” value was 2 µg/mL (≈ 1.38 µM).
